From paper PMC5421785, “Citrullination only infrequently impacts peptide binding to HLA class II MHC” (PLoS ONE, 2017)
Square brackets hold non-standard residues; d marks the D form. Ends that are not written are not given here. Peptide text beside a SMILES is read from it. Cit = NC(=O)NCCC[C@H](N)C(=O)O

What was measured:
Experiment in all cases: HLA class II peptide binding, inhibition of radiolabeled peptide binding to purified MHC; on IC50 DRB1*01:01: competition with radiolabeled peptide (0.1–1 nM); on IC50 DRB1*04:01: competition with radiolabeled peptide (0.1–1 nM)
DRB1*03:01 = DRB1*03:01 (Homo sapiens, UniProt P01903+P01911, A100K/A102G/A103R/A169T/F55Y/I96L/K41T/L162R/M171V/P40S/Q125H/Q178H/Q39Y/R42S/S66N/T106N/T262R/W38E/Y61H); conditions: Other DR, competition with radiolabeled peptide, two-day incubation, three or more independent experiments
DRB1*16:02 = DRB1*16:02 (Homo sapiens, UniProt P01903+P01911, A100R/F76Y/I96L/Q99D/V115G); conditions: SE-, competition with radiolabeled peptide, two-day incubation, three or more independent experiments
DQB1*03:01 = DQB1*03:01 (Homo sapiens, UniProt P01909+P01920); conditions: DQ, competition with radiolabeled peptide, two-day incubation, three or more independent experiments
Sequence of DQB1*03:01 (P01920 33-261, other chains not shown): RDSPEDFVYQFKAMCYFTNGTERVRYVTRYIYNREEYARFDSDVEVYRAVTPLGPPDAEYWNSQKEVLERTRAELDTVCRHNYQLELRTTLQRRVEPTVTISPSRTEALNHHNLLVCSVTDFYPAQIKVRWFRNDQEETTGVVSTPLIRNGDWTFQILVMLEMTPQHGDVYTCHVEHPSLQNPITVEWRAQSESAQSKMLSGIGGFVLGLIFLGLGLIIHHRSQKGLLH
DRB3*02:02 = DRB3*02:02 (Homo sapiens, UniProt P01903+P79483, A212P/D57E/F66Y/L67A/R103Q/R218S/R40L/S89Y/T80R/V86D/Y55F/Y59H); conditions: Other DR, competition with radiolabeled peptide, two-day incubation, three or more independent experiments
DRB1*08:02 = DRB1*08:02 (Homo sapiens, UniProt P01903+P01911, A100R/A103L/A169T/F76Y/H45Y/I96F/K41T/L162R/M171V/P40S/Q125H/Q178H/Q39Y/Q99D/R218S/R42G/S66Y/V115G/W38E); conditions: Other DR, competition with radiolabeled peptide, two-day incubation, three or more independent experiments
DRB1*09:01 = DRB1*09:01 (Homo sapiens, UniProt P01903+P01911, A100R/A103E/D57H/D86V/F55Y/F60I/F76Y/I96F/K127E/L162R/M171V/P40D/Q125H/Q99R/R33Q/R42F/S133A/S66N/T210M/V115G/W38K/Y107V/Y59G/Y89S); conditions: Other DR, competition with radiolabeled peptide, two-day incubation, three or more independent experiments
DRB1*07:01 = DRB1*07:01 (Homo sapiens, UniProt P01903+P01911, A100R/A102G/A103Q/D57E/D86V/E43K/F76Y/K127E/L162R/M171V/P40G/Q125H/Q99D/R33Q/R42Y/R54Q/S133A/S66F/T210M/V115G/Y107V/Y59L/Y89S); conditions: Other DR, competition with radiolabeled peptide, two-day incubation, three or more independent experiments
DRB1*04:02 = DRB1*04:02 (Homo sapiens, UniProt P01903+P01911, A100E/A169T/F76Y/K127E/L162R/M171V/N62H/P40V/Q125Y/Q99D/R42H/S133A/S149N/S66Y/V209L/W38E); conditions: SE-, competition with radiolabeled peptide, two-day incubation, three or more independent experiments
DRB1*04:05 = DRB1*04:05 (Homo sapiens, UniProt P01903+P01911, A100R/A169T/D86S/F76Y/I96L/K127E/L162R/M171V/N62H/P40V/Q125Y/R42H/S133A/S149N/S66Y/V115G/V209L/W38E); conditions: SE+, competition with radiolabeled peptide, two-day incubation, three or more independent experiments
DRB1*12:01 = DRB1*12:01 (Homo sapiens, UniProt P01903+P01911, A100R/A169T/D57E/D86V/F55L/H45Y/K41T/L162R/M171V/P40S/Q125H/Q178H/Q39Y/Q99D/R42G/S66L/T262R/V114A/V67L/W38E/Y59H/Y61H/Y89S); conditions: SE-, competition with radiolabeled peptide, two-day incubation, three or more independent experiments
DRB1*10:01 = DRB1*10:01 (Homo sapiens, UniProt P01903+P01911, A100R/A169T/D57E/F55L/F60V/F69Y/F76Y/I96L/L162R/M171V/P40V/Q260P/Q39E/Q99R/R195Q/R42F/S149N/S66Y/T210M/V115G/V67A/W38E/Y59R/Y61H); conditions: SE+, competition with radiolabeled peptide, two-day incubation, three or more independent experiments
DRB4*01:01 = molecular target: T1, DRB4*01:01 (Homo sapiens, UniProt P01903+P13762, G164S); conditions: Other DR, competition with radiolabeled peptide, two-day incubation, three or more independent experiments
T1 construct: EBV transformed homozygous cell lines were used as sources of MHC molecules; endogenous in cells; host or cells: EBV transformed homozygous cell lines

HLA-DRB1*01:01 = molecular target: T2, HLA-DRB1*01:01 (Homo sapiens, UniProt P01903+P01911, A100R/D57E/F55L/F60I/F76Y/I96L/L162R/M171V/P40L/Q125E/R42F/V115G/Y59C); conditions: read-out: IC50 DRB1*01:01; further: competition with radiolabeled peptide (0.1–1 nM)
T2 construct: EBV transformed homozygous cell lines were used as sources of MHC molecules; endogenous in cells; host or cells: EBV transformed homozygous cell lines

DRB1*15:01 = molecular target: T3, DRB1*15:01 (Homo sapiens, UniProt P01903+P01911); conditions: SE-, competition with radiolabeled peptide, two-day incubation, three or more independent experiments
T3 construct: EBV transformed homozygous cell lines were used as sources of MHC molecules; endogenous in cells; host or cells: EBV transformed homozygous cell lines

HLA-DRB1*04:01 = molecular target: T4, HLA-DRB1*04:01 (Homo sapiens, UniProt P01903+P01911, A100K/A169T/F76Y/I96L/K127E/L162R/M171V/N62H/P40V/Q125Y/R42H/S133A/S149N/S66Y/V115G/V209L/W38E); conditions: read-out: IC50 DRB1*04:01; further: competition with radiolabeled peptide (0.1–1 nM)
T4 construct: EBV transformed homozygous cell lines were used as sources of MHC molecules; endogenous in cells; host or cells: EBV transformed homozygous cell lines

DRB1*13:02 = DRB1*13:02 (Homo sapiens, UniProt P01903+P01911, A100E/A169T/K41T/L162R/M171V/P40S/Q125H/Q178H/Q39Y/Q99D/R42S/S66N/T262R/V115G/W38E/Y61H); conditions: SE-, competition with radiolabeled peptide, two-day incubation, three or more independent experiments
DRB5*01:01 = molecular target: T5, DRB5*01:01 (Homo sapiens, UniProt P01903+Q30154); conditions: Other DR, competition with radiolabeled peptide, two-day incubation, three or more independent experiments
T5 construct: EBV transformed homozygous cell lines were used as sources of MHC molecules; endogenous in cells; host or cells: EBV transformed homozygous cell lines

DRB3*01:01 = molecular target: T6, DRB3*01:01 (Homo sapiens, UniProt P01903+P79483); conditions: Other DR, competition with radiolabeled peptide, two-day incubation, three or more independent experiments
T6 construct: EBV transformed homozygous cell lines were used as sources of MHC molecules; endogenous in cells; host or cells: EBV transformed homozygous cell lines

DRB1*11:01 = DRB1*11:01 (Homo sapiens, UniProt P01903+P01911, A100R/A169T/A87E/I96F/K41T/L162R/M171V/P40S/Q125H/Q178H/Q39Y/Q99D/R42S/S66Y/T262R/V115G/W38E); conditions: SE-, competition with radiolabeled peptide, two-day incubation, three or more independent experiments
DRB1*04:04 = DRB1*04:04 (Homo sapiens, UniProt P01903+P01911, A100R/A169T/F76Y/I96L/K127E/L162R/M171V/N62H/P40V/Q125Y/R42H/S133A/S149N/S66Y/V209L/W38E); conditions: SE+, competition with radiolabeled peptide, two-day incubation, three or more independent experiments
DPB1*04:01 = molecular target: T7, DPB1*04:01 (Homo sapiens, UniProt P04440+P20036); conditions: DP; purified MHC, competition with radiolabeled peptide, two-day incubation, three or more independent experiments
T7 construct: EBV transformed homozygous cell lines were used as sources of MHC molecules; endogenous in cells; host or cells: EBV transformed homozygous cell lines
T7 sequence (P04440 30-258): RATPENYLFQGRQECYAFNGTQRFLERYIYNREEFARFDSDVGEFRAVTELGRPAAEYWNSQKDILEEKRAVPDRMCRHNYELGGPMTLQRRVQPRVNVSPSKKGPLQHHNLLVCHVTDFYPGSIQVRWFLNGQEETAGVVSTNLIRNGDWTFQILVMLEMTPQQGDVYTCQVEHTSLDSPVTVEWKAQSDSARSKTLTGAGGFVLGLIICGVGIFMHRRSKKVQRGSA
T7 sequence (P20036 29-260 partner): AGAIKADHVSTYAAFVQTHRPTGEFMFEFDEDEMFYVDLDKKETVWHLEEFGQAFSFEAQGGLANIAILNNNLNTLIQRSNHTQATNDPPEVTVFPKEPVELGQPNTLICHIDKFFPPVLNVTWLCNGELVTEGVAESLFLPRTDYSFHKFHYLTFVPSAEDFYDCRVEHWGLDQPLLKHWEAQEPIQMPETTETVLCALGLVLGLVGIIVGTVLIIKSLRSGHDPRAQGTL

Row | IC50 (DRB1*03:01) [µM] | IC50 (DRB1*16:02) [µM] | IC50 (DQB1*03:01) [µM] | IC50 (DRB3*02:02) [µM] | IC50 (DRB1*08:02) [µM] | IC50 (DRB1*09:01) [µM] | IC50 (DRB1*07:01) [µM] | IC50 (DRB1*04:02) [µM] | IC50 (DRB1*04:05) [µM] | IC50 (DRB1*12:01) [µM] | IC50 (DRB1*10:01) [µM] | IC50 (DRB4*01:01) [µM] | IC50 (HLA-DRB1*01:01) [µM] | IC50 (DRB1*15:01) [µM] | IC50 (HLA-DRB1*04:01) [µM] | IC50 (DRB1*13:02) [µM] | IC50 (DRB5*01:01) [µM] | IC50 (DRB3*01:01) [µM] | IC50 (DRB1*11:01) [µM] | IC50 (DRB1*04:04) [µM] | Molecule | other results
1 | 0.159 | 23.1 | 12.8 | 0.262 | 1.04 | 0.315 | 29.6 | 0.118 | 1.77 | > 30 | 0.375 | 0.08 | 0.081 | 1.46 | 0.0097 | 3.92 | 8.88 | 0.068 | 9.86 | 0.102 | LQYMRADQAAGGLR [Collagen II 1236–1249 WT] | IC50 (DPB1*04:01): > 30 µM
2 | > 30 | 15.3 | > 30 | > 30 | 35.7 | > 30 | > 30 | > 30 | 11.3 | 9.38 | 8.48 | 12.7 | 15.7 | > 30 | 12.9 | > 30 | 0.0092 | > 30 | > 30 | 2.32 | CC[C@H](C)[C@H](NC(=O)[C@H](CCCNC(N)=O)NC(=O)[C@H](CC(N)=O)NC(=O)[C@@H](NC(=O)[C@H](Cc1ccccc1)NC(=O)[C@H](CC(=O)O)NC(=O)[C@H](CCC(N)=O)NC(=O)[C@@H](N)CC(N)=O)[C@@H](C)O)C(=O)N[C@@H](CC(N)=O)C(=O)N[C@@H](CCCCN)C(=O)N[C@@H](CC(C)C)C(=O)N[C@@H](CCCCN)C(=O)N[C@@H](CC(N)=O)C(=O)N[C@@H](CO)C(=O)O [Fibrinogen 78–91 Cit] (H-NQDFTN[Cit]INKLKNS-OH) | IC50 (DPB1*04:01): > 30 µM
3 | 11.1 | 22.8 | 0.382 | 0.051 | 17 | 28.5 | 8.47 | 4.26 | 0.047 | 11 | 2.42 | 2.34 | 3.86 | 7.6 | 0.827 | 0.552 | 0.74 | 18.9 | 29.7 | 0.854 | CC(C)C[C@H](NC(=O)[C@H](CC(C)C)NC(=O)[C@@H](NC(=O)[C@@H](N)C(C)C)C(C)C)C(=O)N[C@H](C(=O)N[C@@H](C)C(=O)N[C@H](C(=O)N[C@@H](CCC(=O)O)C(=O)NCC(=O)N[C@@H](CCCNC(N)=O)C(=O)N[C@H](C(=O)N[C@@H](CCCNC(=N)N)C(=O)N[C@H](C(=O)N[C@@H](CC(N)=O)C(=O)N[C@@H](CO)C(=O)N[C@@H](C)C(=O)N[C@@H](Cc1ccc(O)cc1)C(=O)N[C@@H](CCC(N)=O)C(=O)N[C@@H](CC(=O)O)C(=O)N[C@@H](CCCCN)C(=O)O)C(C)C)C(C)C)[C@@H](C)O)C(C)C [Aggrecan 84–103 Cit] (H-VVLLVATEG[Cit]VRVNSAYQDK-OH) | IC50 (DPB1*04:01): 16.2 µM
4 | 0.072 | > 30 | 4.12 | 0.481 | 2.15 | 0.276 | > 30 | 0.211 | 7.34 | > 30 | 0.432 | 0.0073 | 0.232 | 15.2 | 0.013 | 8.29 | 10.2 | 0.063 | > 30 | 0.216 | CSCC[C@H](NC(=O)[C@H](Cc1ccc(O)cc1)NC(=O)[C@H](CCC(N)=O)NC(=O)[C@@H](N)CC(C)C)C(=O)N[C@@H](CCCNC(N)=O)C(=O)N[C@@H](C)C(=O)N[C@@H](CC(=O)O)C(=O)N[C@@H](CCC(N)=O)C(=O)N[C@@H](C)C(=O)N[C@@H](C)C(=O)NCC(=O)NCC(=O)N[C@@H](CC(C)C)C(=O)N[C@@H](CCCNC(=N)N)C(=O)O [Collagen II 1236–1249 Cit] (H-LQYM[Cit]ADQAAGGLR-OH) | IC50 (DPB1*04:01): > 30 µM
5 | 0.53 | 20.5 | 0.229 | 0.245 | 3.96 | 0.73 | 3.03 | 0.501 | 0.183 | 1.05 | 0.643 | 0.955 | 0.155 | 1.01 | 0.713 | 0.268 | 0.016 | 8.46 | 0.52 | 0.565 | VVLLVATEGRVRVNSAYQDK [Aggrecan 84–103 WT] | IC50 (DPB1*04:01): 26.2 µM
